What was measured:
OVCAR3 cells [1] = test: MTT viability assay; format: cell-based, human
Procedure: NOE, MC[MUT] or OVCAR3 (as indicated) were starved of serum overnight and then cultured in 0.5% serum. […] Cell proliferation and viability assay was assessed before and after treatment with the PI3-kinase inhibitor LY294002 as follows. Cells were cultured in 96-well plates (15×10^3 cells/well) and serum starved overnight prior to the addition of LY294002 (Calbiochem) at various concentrations. […] For viability assay, cells were incubated with LY294002 as described above for 96 hours. MTT (25 ml of 5 ml/ml in PBS) was added to each well and incubated at 37° C. for 2 hours. Cells were then lysed by addition of 100 ml lysis buffer (20% SDS in 50% N,N-dimethylformamide, pH4.7). The cultures were set at 37° C. overnight and measured by microplate reader at 570 nm wavelength. Percent Maximum was converted from OD570 as indicated above.

OVCAR3 cells [2] = test: programmed cell death, fluorescence based measurement of free DNA ends (Apo direct); design: species or system human
Procedure: This decrease in viability (FIG. 5B) was associated with an increased rate of programmed cell death at 24 (24% vs 51%) and 48 hour (22% vs 52%) as assessed by a fluorescence based measurement of free DNA ends Apo direct, Phoenix Flow Systems.

## O=c1cc(N2CCOCC2)oc2c(-c3ccccc3)cccc12 [LY294002]
OVCAR3 cells [1]; in serum free media
  times more sensitive to the effect of LY294002 (OVCAR3 vs NOE or MCF10F): 100 times
OVCAR3 cells [1]; in the presence of 0.5% FCS
  times more sensitive to the effect of LY294002 (OVCAR3 vs NOE or MCF10F): 10 times
OVCAR3 cells [2]; 24 hour, printed as 24% vs 51%
  rate of programmed cell death: 51%
OVCAR3 cells [2]; 48 hour, printed as 22% vs 52%
  rate of programmed cell death: 52%

— patent US7670767B1, “Genetic alterations associated with cancer” (The Regents of the University of California, priority 1997, dated 2010)
